From PMC3565340, “Crystal Structure of Dimeric Flavodoxin from Desulfovibrio gigas Suggests a Potential Binding Region for the Electron-Transferring Partner” (International Journal of Molecular Sciences, 2013) come the findings set out here.

This assay addresses T1, Fld (flavodoxin from Desulfovibrio gigas) (Megalodesulfovibrio gigas, UniProt Q01095).
T1 construct: native, purified from anaerobically grown D. gigas cells; untagged; 146 residues, 15 kDa; residues 2-146 modelled; homodimer
The experiment in a line: X-ray crystal structure of the complex, […] Å. The class given is binding. The following applies: non-covalently bound native cofactor, co-purified; crystals at pH 6.5 (bis-Tris, PEG550, CaCl2); semiquinone-like state.

T1 sequence (Q01095 whole entry, the tested form may be a part): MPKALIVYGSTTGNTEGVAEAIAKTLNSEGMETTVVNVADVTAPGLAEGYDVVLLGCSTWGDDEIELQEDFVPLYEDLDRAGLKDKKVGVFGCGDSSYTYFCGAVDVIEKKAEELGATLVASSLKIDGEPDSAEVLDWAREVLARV

Consider `Cc1cc2nc3c(=O)[nH]c(=O)nc-3n(C[C@H](O)[C@H](O)[C@H](O)COP(=O)(O)O)c2cc1C` [FMN, flavin mononucleotide], for which the “X-ray crystal structure of the complex, 1.3 Å” value is reported as “the position of FMN was well defined by the electron density”.
